Laboratory results reported in US20070148283A1, “Compositions providing a sensation substantially similar to that provided by menthol” (Cadbury Adams USA LLC, priority 2005, published 2007).

Assay: Amount in a composition achieving the characteristic cooling effect of menthol
Assay type: in vivo
Conditions: amount present in a composition; equivalent amounts relative to menthol
Text: For purposes of achieving the characteristic “cooling effect” of menthol, an equivalent amount of another compound sufficient to impart the characteristic “cooling effect” of menthol is about 50 ppm, preferably about 100 ppm or even 200 or 300 ppm of menthyl lactate, about 20 ppm, preferably about 40 ppm or even 50 or 75 ppm of monomenthyl succinate, and about 0.01 ppm, preferably about 0. 1 ppm or even 0.3 or 0.5 ppm of isopulegol. Using these relative conversions, one of ordinary skill in the art may readily substitute one or more compounds to achieve the relative “cooling effect” of menthol.

| Compound | amount sufficient to impart the characteristic cooling effect of menthol |
| --- | --- |
| C=C(C)[C@@H]1CC[C@@H](C)C[C@H]1O [isopulegol] | about 0.01 ppm |
| CC1CCC(C(C)C)C(O)C1 (stereo not drawn) [menthol] | ≥ 25 ppm |
| CC1CCC(C(C)C)C(OC(=O)C(C)O)C1 (stereo not drawn) [menthyl lactate] | about 50 ppm |
| CC(C)[C@@H]1CC[C@@H](C)C[C@H]1OC(=O)CCC(=O)O [monomenthyl succinate] | about 20 ppm |

Assay: Amount in a composition achieving the characteristic nasal action of menthol
Assay type: in vivo
Conditions: amount present in a composition; equivalent amounts relative to menthol
Text: For purposes of achieving the characteristic “nasal action” of menthol, an equivalent amount of another compound sufficient to impart the characteristic “nasal action” of menthol is about 0.5 ppm, preferably about 1 ppm or even 2 or 3 ppm of methone, about 0.5 ppm, preferably about 1 ppm or even 2 or 3 ppm of isomethone, about 0.1 ppm, preferably about 0.2 ppm or even 0.3 or 0.5 ppm of eucalyptol, and about 10 ppm, preferably about 20 ppm or even 30 or 50 ppm of camphor. Using these relative conversions, one of ordinary skill in the art may readily substitute one or more compounds to achieve the relative “nasal action” of menthol.

| Compound | amount sufficient to impart the characteristic nasal action of menthol |
| --- | --- |
| CC12CCC(CC1=O)C2(C)C (stereo not drawn) [camphor] | about 10 ppm |
| CC12CCC(CC1)C(C)(C)O2 [eucalyptol] | about 0.1 ppm |
| CC(C)[C@@H]1CC[C@H](C)CC1=O [isomethone, isomenthone] | about 0.5 ppm |
| CC1CCC(C(C)C)C(O)C1 (stereo not drawn) [menthol] | ≥ 3 ppm |
| CC(C)[C@@H]1CC[C@@H](C)CC1=O [methone, menthone] | about 0.5 ppm |
